For series [1], the target named is T1, human glucocorticoid receptor (GR) complex (Homo sapiens, UniProt P04150).
T1 construct: made in house; host or cells: insect expression system (baculovirus lysate)
T1 sequence (P04150 1-777): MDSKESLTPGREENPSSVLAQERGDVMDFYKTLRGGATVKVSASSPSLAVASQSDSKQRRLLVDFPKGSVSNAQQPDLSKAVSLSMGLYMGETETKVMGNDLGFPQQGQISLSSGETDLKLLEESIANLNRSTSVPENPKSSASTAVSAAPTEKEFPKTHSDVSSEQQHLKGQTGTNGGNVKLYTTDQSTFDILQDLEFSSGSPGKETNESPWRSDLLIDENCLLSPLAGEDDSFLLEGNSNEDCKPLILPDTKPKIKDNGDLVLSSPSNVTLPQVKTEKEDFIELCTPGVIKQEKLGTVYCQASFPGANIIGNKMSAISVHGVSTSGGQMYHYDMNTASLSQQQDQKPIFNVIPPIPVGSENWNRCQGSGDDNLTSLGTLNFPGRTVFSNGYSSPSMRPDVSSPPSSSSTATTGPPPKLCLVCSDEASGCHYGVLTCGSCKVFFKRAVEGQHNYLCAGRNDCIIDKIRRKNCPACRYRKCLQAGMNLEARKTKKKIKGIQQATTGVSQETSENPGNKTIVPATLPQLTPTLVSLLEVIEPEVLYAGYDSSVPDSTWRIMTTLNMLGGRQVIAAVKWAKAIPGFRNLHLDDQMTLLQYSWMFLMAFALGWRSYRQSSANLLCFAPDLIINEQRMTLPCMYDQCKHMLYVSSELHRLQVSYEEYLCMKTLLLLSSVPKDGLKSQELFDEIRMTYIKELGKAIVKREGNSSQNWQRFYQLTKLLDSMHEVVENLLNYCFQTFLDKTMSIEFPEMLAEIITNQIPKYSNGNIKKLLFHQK
In words: Glucocorticoid receptor competitive binding assay (fluorescence polarization). As to conditions: competition with TAMRA-labeled dexamethasone. The procedure, abridged: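 FP competition against 15 nM TAMRA-labeled dexamethasone (stock added) for GR complex in baculovirus insect-cell lysate, buffer 10 mM TES, 50 mM KCl, 20 mM molybdate, pH 7.4 with 1 mM DTT. Incubated 1 h at room temperature, read at ex 550/em 580 nm; IC50 from 4-parameter logistic fit.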

In the next series the test system is glucocorticoid receptor. In words: One or more of the above assays (GR binding and GR cell assays; not specified which). The class given is cell-based. The conditions noted are these: in one or more of the above assays.

From patent publication US7268152B2, “Glucocorticoid mimetics, methods of making them, pharmaceutical compositions, and uses thereof” (Boehringer Ingelheim Pharmaceuticals, Inc., priority 2002, dated 2007) come the findings set out here.

With `CC(C)(CC(O)(Cc1cc(C(F)(F)F)cc(Cl)c1F)C(F)(F)F)c1cccc2ccoc12` (stereo not shown) [4-Benzofuran-7-yl-2-(3-chloro-2-fluoro-5-trifluoromethylbenzyl)-1,1,1-trifluoro-4-methylpentan-2-ol], the half-inhibitory concentration (IC50) in series [1] was at most 100 nM. Besides, the “activity as agonists of the glucocorticoid receptor function” value (shortened to “activity”) with glucocorticoid receptor is recorded as “activity as agonists”.

With `COc1ccc(F)cc1C(C)(C)CC(O)(Cc1cc(C)cc(C)c1C#N)C(F)(F)F` (stereo not shown) [Example 32, 2-[4-(5-fluoro-2-methoxyphenyl)-2-hydroxy-4-methyl-2-trifluoromethylpentyl]-4,6-dimethylbenzonitrile], the melting point fell in the range of 134 to 136 °C. In series [1], `CC(C)(CC(O)(Cc1ccc(C#N)cc1Cl)C(F)(F)F)c1cccc2c1OCC2` (stereo not shown) [3-Chloro-4-[4-(2,3-dihydrobenzofuran-7-yl)-2-hydroxy-4-methyl-2-trifluoromethylpentyl]benzonitrile] yielded an IC50 of at most 100 nM. In the series on glucocorticoid receptor, the “activity” value was “activity as agonists”. The like results for `COc1ccc(F)cc1C(C)(C)CC(O)(Cc1cc(C(F)(F)F)cc(Cl)c1F)C(F)(F)F` (stereo not shown) [2-(3-Chloro-2-fluoro-5-trifluoromethylbenzyl)-1,1,1-trifluoro-4-(5-fluoro-2-methoxyphenyl)-4-methylpentan-2-ol] were, in that order, at most 100 nM and “activity as agonists”. In turn, `COc1ccc(F)cc1C(C)(C)CC(O)(Cc1cc(C)cc(C)c1)C(F)(F)F` (stereo not shown) [2-(3,5-Dimethylbenzyl)-1,1,1-trifluoro-4-(5-fluoro-2-methoxyphenyl)-4-methylpentan-2-ol] came in with a half-inhibitory concentration (IC50) in series [1] of at most 100 nM. In the series on glucocorticoid receptor, the “activity” value was “activity as agonists”.

For the molecule `Cc1cc(Cl)cc(CC(O)(CC(C)(C)c2cc(F)ccc2O)C(F)(F)F)c1` (stereo not shown) [2-[3-(3-Chloro-5-methylbenzyl)-4,4,4-trifluoro-3-hydroxy-1,1-dimethylbutyl]-4-fluorophenol], the IC50 in series [1] is at most 100 nM. The “activity” value in the series with glucocorticoid receptor was “activity as agonists”. The like results for `COc1ccc(F)cc1C(C)(C)CC(O)(Cc1cc(Br)cc(C)c1F)C(F)(F)F` (stereo not shown) [2-(5-Bromo-2-fluoro-3-methylbenzyl)-1,1,1-trifluoro-4-(5-fluoro-2-methoxyphenyl)-4-methylpentan-2-ol] were, in that order, at most 100 nM and “activity as agonists”.
